Target: T1, hPTPRS (Homo sapiens, UniProt Q13332)
T1 construct: The ICRs of PTPRG, PTPRS, and PTPRB and the catalytic domains of PTPN1 and PTPN6; GST (N); made in house; host or cells: Escherichia coli BL21
T1 sequence (Q13332 1304-1948 limits assumed): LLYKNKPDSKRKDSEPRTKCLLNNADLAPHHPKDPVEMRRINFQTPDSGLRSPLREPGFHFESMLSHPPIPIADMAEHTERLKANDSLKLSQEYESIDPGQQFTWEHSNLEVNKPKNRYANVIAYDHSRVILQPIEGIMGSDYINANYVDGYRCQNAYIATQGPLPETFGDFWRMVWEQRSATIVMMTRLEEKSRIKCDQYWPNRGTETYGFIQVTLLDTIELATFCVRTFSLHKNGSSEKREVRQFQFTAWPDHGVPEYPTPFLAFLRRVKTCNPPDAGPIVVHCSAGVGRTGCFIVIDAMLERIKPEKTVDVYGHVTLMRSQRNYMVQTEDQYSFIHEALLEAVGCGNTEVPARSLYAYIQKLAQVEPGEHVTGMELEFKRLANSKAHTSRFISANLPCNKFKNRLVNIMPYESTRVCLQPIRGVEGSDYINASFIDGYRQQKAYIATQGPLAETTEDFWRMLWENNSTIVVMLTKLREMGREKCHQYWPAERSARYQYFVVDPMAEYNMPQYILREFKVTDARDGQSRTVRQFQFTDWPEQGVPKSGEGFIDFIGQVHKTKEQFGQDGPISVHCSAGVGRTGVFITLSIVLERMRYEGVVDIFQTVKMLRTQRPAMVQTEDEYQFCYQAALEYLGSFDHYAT
Assay: In vitro PTPase assay (DiFMUP), PTPRS
Type: biochemical
Conditions: 60-min preincubation
Protocol: Figure 4 NAZ2329, an allosteric inhibitor of R5 RPTP subfamily members. (A) Structure of NAZ2329. (B) Effect of preincubation of NAZ2329 on its inhibitory activity against PTPRZ. Recombinant human PTPRZ1 enzyme (the whole intracellular region) was premixed with NAZ2329 for the indicated times and followed by addition of a fluorogenic DiFMUP (non-specific PTP substrate, 6,8-difluoro-4-methylumbiliferyl phosphate) to measure PTP inhibitory activity. (C) Time dependence. The PTPRZ1 enzyme was added to the inhibitor–substrate mixture, and the inhibitory activity was determined at each time point relative to the vehicle control. (D) Reversibility of inhibition. […] The mixture was then 20-fold diluted, and recovered PTP activity was expressed as the relative activity compared with the vehicle-treated enzyme. […] PTPRZ1 enzymes were preincubated with NAZ2329 for 60 min, and the PTP activity was measured using DiFMUP. […]
Recombinant proteins corresponding to the entire intracellular regions (ICRs) of PTPRZ1, PTPRA, and PTPRM were expressed using a baculovirus-silkworm expression system, and purified as described. The ICRs of PTPRG, PTPRS, and PTPRB and the catalytic domains of PTPN1 and PTPN6 were expressed as glutathione-S-transferase (GST) fusion proteins from each pGEX plasmid in Escherichia coli strain BL21 (ref. [6]). […]

**Q.** `CCOc1ccc(C(F)(F)F)cc1CSc1ccsc1C(=O)NS(=O)(=O)c1ccccc1` [NAZ2329] was tested. Which IC50 did it give?
**A.** 23.7 µM

Reference: paper PMC5514153, “Targeting PTPRZ inhibits stem cell-like properties and tumorigenicity in glioblastoma cells” (Scientific Reports, 2017)
